Data set [1] relates to PANC-1, C6, MCF-7, U2OS and HT1080 cells. The procedure:
Studies similar in general to those outlined in the previous section, were conducted with five cell lines selected for this task (PANC-1, C6, MCF-7, U2OS and HT1080), increasing the length of the experiment to 48 hours. The studies were done with DOX and with Vinblastine (VIN or VLB).

Another data set relates to C6 and PANC-1 cells. Further details: dose or concentration left out as unconfirmed. The conditions noted are these: […] μM fluoxetine alone, 24 hours.
The conditions of data set [2]: highest safe dose used for accepted indications; cited from earlier work.
The conditions of data set [3]: clinical studies, review (DeVita et al., 1993); cited from earlier work.

This is an account of results in patent US6630454B2, “Method and pharmaceutical composition for the treatment of cancer” (priority 2001, dated 2003).

With `CNCCC(Oc1ccc(C(F)(F)F)cc1)c1ccccc1` (centres unmarked) [fluoxetine, N-methyl 3-(p-trifluoromethylphenoxy)-3-phenylpropylamine], in data set [1], the “potentiation of the cytotoxic effect of the chemotherapeutic drug” value is recorded as “potentiates the cytotoxic effect”. For the same compound, the “effect of fluoxetine alone on cell survival” value in the data set with C6 and PANC-1 cells is recorded as “does not affect cell survival at all”. Further, in data set [2], the highest safety limit is 15 µM. As for `CC/C(=C(\c1ccccc1)c1ccc(OCCN(C)C)cc1)c1ccccc1` [tamoxifen], the “side effects / dose-limiting toxicity when used as chemosensitizer” value in data set [3] is given as “attributed to the inherent toxicity of the chemosensitizer”. Regarding `CN1CCN(CCCN2c3ccccc3Sc3ccc(C(F)(F)F)cc32)CC1` [trifluoperazine], in data set [3], the “side effects / dose-limiting toxicity when used as chemosensitizer” value is given as “attributed to the inherent toxicity of the chemosensitizer”.
